Source: US8470870B2, “Solid forms of an anti-HIV phosphoindole compound” (Idenix Pharmaceuticals, Inc., priority 2008, dated 2013)
In brackets after ≈: the same amount, converted by molar mass.

How the values were obtained:
[1] = Solubility in recrystallization solvents (Panel 1); format: physicochemical; conditions: organic solvent or mixture, thermodynamic from solid, saturation temp. 25 °C
Experimental: Milligram size quantities of each sample were placed into a vial. Solvent was added and the vials were vortexed for a few minutes, followed by visual observation for remaining solids. The solvent was incrementally added until the solids were dissolved, or a maximum volume of solvent was added and the experiment was terminated. Parallel to that, a suspension is made and filtered, the solids was examined by XRD to determine if a phase transformation occurs. Saturated solutions were prepared by agitating excess test material in contact with the various solvent systems at the saturation temperature. The mother liquor was separated from the residual solids by filtration. The mother liquor was then heated above the saturation temperature (overheated) to dissolve any remaining solids. The temperature of the solutions was then adjusted to the growth temperature and a controlled nitrogen shear flow was introduced to begin solvent evaporation.

[2] = tested on: several serine proteases like S. griseus proteases A and B, α-chymotrypsin, chymase, and subtilisin; conditions: cited from earlier work
[3] = Non-competitive slurry experiments in neat solvents; format: physicochemical
Experimental: Noncompetitive slurry experiments were performed. These experiments rely on solubility differences of different polymorphic forms (if the compound exists in different polymorphic forms). […] Essentially, when a solid is dissolved in a (slurry) solvent, a saturated solution eventually results. The solution is saturated with respect to the polymorphic form dissolved. […] In addition, noncompetitive slurry experiments are often useful in identifying solvents that form solvates with the compound. […] The solids were mechanically filtered and analyzed by XRD to determine the resulting form. To avoid possible desolvation or physical change after isolation, the samples were not subjected to drying before X-ray analysis.

[4] = Hydration experiment at 95% RH; format: physicochemical; conditions: 18 days
Experimental: Hydration experiments were performed on (2-carbamoyl-5-chloro-1H-indol-3-yl)-[3-((E)-2-cyano-vinyl)-5-methyl-phenyl]-(R)-phosphinic acid methyl ester Form III sample. A known weight of sample was exposed to a 95% RH environment using a saturated solution of […].

[5] = Annealing experiment; format: physicochemical; conditions: 14 days at 46° C.
Experimental: In addition to the solvent recrystallization experiments and slurry experiments, annealing experiments were performed. These experiments entailed looking for structural changes as a function of temperature. This was accomplished by using variable-temperature XRD, and variable temperature ovens, and DSC experiments.

[6] = Competitive slurry experiments; format: physicochemical
Experimental: Competitive slurry experiments were performed by mixing excess amounts of the polymorphic forms together in different solvents and agitating isothermally. These types of slurry experiments were used in attempts to determine which phase is more thermodynamically stable under the conditions used. Slurry experiments were generally used to examine the energy relationship between Form I and Form IX, and to examine how these two forms may interconvert with the monohydrate (Form VIII).

[7] = Apparent kinetic solubility in 2-butanol of different crystalline forms; format: physicochemical; conditions: dry 2-butanol; for relative solubility among Forms I, VIII and IX: ambient temperature; for Apparent Kinetic Solubility: 25° C.
Experimental: Milligram size quantities of each sample were placed into a vial. Solvent was added and the vials were vortexed for a few minutes, followed by visual observation for remaining solids. The solvent was incrementally added until the solids were dissolved, or a maximum volume of solvent was added and the experiment was terminated. Parallel to that, a suspension is made and filtered, the solids was examined by XRD to determine if a phase transformation occurs. Solubility experiments were performed to determine the solubility of the different polymorphic forms. […] Solubility data were collected on polymorphs I, VIII, and IX. Two of the forms were anhydrous and one was hydrated. […] Excess solids were placed in a test tube, solvent was then added in the tube, vortexed, and examined visually to determine if all the solids had dissolved. Attempts were made to prepare saturated or nearly saturated solutions of each polymorphic form by exposing excess solids of each polymorph to dry 2-butanol.

[8] = Solubility in water (preliminary, in words); format: physicochemical
Experimental: Milligram size quantities of each sample were placed into a vial. Solvent was added and the vials were vortexed for a few minutes, followed by visual observation for remaining solids. The solvent was incrementally added until the solids were dissolved, or a maximum volume of solvent was added and the experiment was terminated. Parallel to that, a suspension is made and filtered, the solids was examined by XRD to determine if a phase transformation occurs. Solubility experiments were performed to determine the solubility of the different polymorphic forms. […] Solubility data were collected on polymorphs I, VIII, and IX. Two of the forms were anhydrous and one was hydrated.

[9] = Form I/Form VIII competitive slurry in water-methanol mixtures; format: physicochemical
Experimental: Additional competitive slurry experiments were performed by mixing excess amounts of polymorphic forms in a solvent system and agitating the mixture isothermally. The competitive slurry experiments were used in attempts to identify the critical water activity levels for the interconversion of Form I (anhydrate target form) and Form VIII (monohydrate form). This was used to identify the water content range that can be used during processing to successfully isolate Form I in a reproducible manner. In each competitive slurry experiment, an excess of Form I and Form VIII of known weight was added to a water-methanol mixture. The suspension was slurred at ambient temperature (22° C.) or 45° C. continuously for up to 12 days in order to obtain thermodynamic equilibrium. Excess solids were collected at different slurry times by centrifugation, and then characterized by XRD. To avoid possible desolvation or physical change after isolation, the samples were not subjected to drying before X-ray analysis.

CO[P@](=O)(c1cc(C)cc(/C=C/C#N)c1)c1c(C(N)=O)[nH]c2ccc(Cl)cc12 [compound of Formula I, (2-carbamoyl-5-chloro-1H-indol-3-yl)-[3-((E)-2-cyano-vinyl)-5-methyl-phenyl]-(R)-phosphinic acid methyl ester]
solubility ([1]; 1-propanol): ~2.67 mg/mL
solubility ([1]; 2-butanol): < 2.67 mg/mL
solubility ([1]; 2-propanol): < 2.67 mg/mL
solubility ([1]; ethanol): 3.64 mg/mL
solubility ([1]; methanol): 10 mg/mL
solubility ([1]; nitromethane): 5.71 mg/mL

Eglin c
potency of inhibition [2]: nanomolar potency inhibition

CO[P@](=O)(c1cc(C)cc(/C=C/C#N)c1)c1c(C(N)=O)[nH]c2ccc(Cl)cc12 [Form III]
form after slurry (ripening) in methanol ([3]; neat methanol, about 1 day, ambient temperature): converted to Form I
form after non-competitive slurry in water ([3]; water, 3 days): resulted in Form VIII
XRD pattern after exposure to humidity [4]: no changes in XRD pattern
XRD pattern after annealing [5]: no change in the XRD pattern

COP(=O)(c1cc(C)cc(/C=C/C#N)c1)c1c(C(N)=O)[nH]c2ccc(Cl)cc12 (stereo not shown) [Form IX, (2-carbamoyl-5-chloro-1H-indol-3-yl)-[3-((E)-2-cyano-vinyl)-5-methyl-phenyl]phosphinic acid methyl ester]
thermodynamic stability among forms ([6]; ambient temperature and pressure): most stable form
form after slurry in water ([6]; water, several days): remained unchanged
solubility kinetic ([7]; 25 °C, organic solvent or mixture, thermodynamic from solid): 0.16 mg/mL (≈ 387 µM)
relative solubility among Forms I, VIII and IX [7]: lowest solubility

CO[P@](=O)(c1cc(C)cc(/C=C/C#N)c1)c1c(C(N)=O)[nH]c2ccc(Cl)cc12 [Form I, (2-carbamoyl-5-chloro-1H-indol-3-yl)-[3-((E)-2-cyano-vinyl)-5-methyl-phenyl]-(R)-phosphinic acid methyl ester]
XRD pattern after slurry in water ([3]; water, ambient temperature and 50° C., up to 6 days): did not show changes in XRD pattern
solubility in water [8]: practically insoluble
Apparent Kinetic Solubility ([7]; listed as I): 1.81 mg/mL
relative solubility among Forms I, VIII and IX [7]: highest solubility
water content level needed to stabilize Form I (anhydrate) [9]: ≤ 24 wt %

CO[P@](=O)(c1cc(C)cc(/C=C/C#N)c1)c1c(C(N)=O)[nH]c2ccc(Cl)cc12 [Form VIII, (2-carbamoyl-5-chloro-1H-indol-3-yl)-[3-((E)-2-cyano-vinyl)-5-methyl-phenyl]-(R)-phosphinic acid methyl ester]
critical water activity level for Form I/Form VIII interconversion ([6]; methanol/water bridging experiments): 40-60 vol % water
Apparent Kinetic Solubility ([7]; listed as VIII): 0.31 mg/mL
